PMC7582929, “Characterization of Cetacean Proline-Rich Antimicrobial Peptides Displaying Activity against ESKAPE Pathogens” (International Journal of Molecular Sciences, 2020)
Where two headings read alike, the source gives them in different places. Ends that are not written are not given here.

Columns and labels:
[1] = test system: E. coli BW25113—Δ SbmA; format: cell-based, Escherichia coli; conditions: E. coli BW25113 ΔSbmA, median of n ≥ 3
Text: (§1) The following microbial reference strains were utilized: Escherichia coli BW25113, E. coli ATCC 25922, E. coli ML35p, Enterococcus faecium ATCC 19434, Staphylococcus aureus ATCC 25923, Klebsiella pneumoniae ATCC 700603, Acinetobacter baumannii ATCC 19606, Pseudomonas aeruginosa ATCC 27853, Stenotrophomonas maltophilia ATCC 13637, Candida albicans ATCC 90029. The ΔsbmA strain of E. coli BW25113 belongs to the KEIO collection and the clinical isolate of Enterobacter agglomerans was kindly provided by Prof. C. Lagatolla from the Microbiology Laboratory of the University of Trieste. All the growth media were purchased from Difco (part of Thermo Fisher Scientific, MA, USA).
(§2) Bacteria were grown in Mueller-Hinton broth (MHB), except E. faecium, which was grown overnight in brain-heart infusion (BHI); E. coli BW25113 ΔsbmA was grown in the presence of 50 μg/mL kanamycin. C. albicans was grown in Sabouraud broth.
(§3) All the strains were grown overnight at 37 °C (except E. agglomerans, S. maltophilia and C. albicans, which were grown at 30 °C), with shaking at 140 rpm. The overnight bacterial cultures were then diluted approximately 1:40 in fresh growth medium and incubated at 37 °C or 30 °C with shaking (140 rpm) until an OD600 of between 0.3 and 0.5 was reached.
(§4) The minimum inhibitory concentration was determined by the broth microdilution method according to the NCCLS protocol. Briefly, an overnight bacterial or fungal culture was diluted in fresh MH or Sabouraud broth, respectively (300 µL O/N culture in 10 mL MHB/Sabouraud) and the culture was let grow at 37 °C or 30 °C to reach OD600 between 0.3 and 0.5. Serial two-fold dilutions of peptides were then performed in culture medium (Sabouraud, MHB or 20% MHB in PBS), to a final volume of 50 µL in the wells of a round bottom microtiter plate (Sarstedt, Milan, Italy), and then the bacterial suspension with a load of 5 × 10^5 CFU/mL was added to the plate, halving the final concentration of bacteria and peptides. The culture was grown at 37 °C or 30 °C and the MIC was determined after 18h by visual inspection as the first clear well. The assessment was performed taking into consideration at least three independent experiments performed in duplicate.

[2] = test system: C. albicans ATCC 90029; format: cell-based, Candida albicans; conditions: ATCC 90029, 18 h
Text: as §1, §2, §3, §4

[3] = test system: S. aureus ATCC 25923; format: cell-based, Staphylococcus aureus; conditions: ATCC 25923, 18 h
Text: as §1, §2, §3
(§5) The minimum inhibitory concentration was determined by the broth microdilution method according to the NCCLS protocol. […]

[4] = test system: E. agglomerans—clinical isolate; format: cell-based, Enterobacter agglomerans; conditions: 18 h
Text: as §1, §2, §3, §4

[5] = test system: S. maltophilia ATCC 13637; format: cell-based, Stenotrophomonas maltophilia; conditions: ATCC 13637, 18 h
Text: as §1, §2, §3, §4

[6] = test system: E. faecium ATCC 19434; format: cell-based, Enterococcus faecium; conditions: ATCC 19434, 18 h
Text: as §1, §2, §3, §4

[7] = test system: bacterial protein synthesis (E. coli extracts); assay: In vitro transcription/translation assay (firefly luciferase reporter); format: biochemical; conditions: E. coli lysate, 30 °C, 1 h, increasing peptide concentrations up to 25 µM, n ≥ 3
Method: Several PrAMPs derived from artiodactyl or insect peptides act by interfering with bacterial protein synthesis. To evaluate if the cePrAMPs also targeted this process, in vitro transcription/translation assays were carried out in their presence, assessing the inhibition of the synthesis of a reporter luciferase (Figure 3). […].  Figure 3 Luciferase activity after in vitro transcription/translation reactions in presence of cePrAMPs. E. coli extracts were incubated with the firefly luciferase reporter DNA in the presence of increasing concentrations of cePrAMPs. Results are presented as the percentage with respect to control samples treated with only RNase-free water. Average and standard deviation of at least three independent experiments (n ≥ 3).
Reactions were set up using lysates of the RTS 100 E. coli HY kit from Biotechrabbit (Berlin, Germany) according to the user manual. Briefly, 1 μL of peptide solution was added to each reaction to reach the desired final concentration in a final volume of 6 μL. […] The presence of luciferase reporter protein was quantified by measuring its luminescence using a Infinite M200 plate reader (Tecan, Männedorf, Switzerland). The relative luminescence values for all the assays were calculated as a percentage of the positive control (reactions with nuclease-free water instead of the peptides) using three independent replicates. […]

[8] = test system: K. pneumoniae ATCC 700603; format: cell-based, Klebsiella pneumoniae; conditions: 20% Mueller-Hinton broth in PBS, median of n ≥ 3
Text: as §1, §2, §3, §5

[9] = test system: E. coli BW25113; format: cell-based, Escherichia coli
Text: as §1, §2, §3, §4

[10] = test system: P. aeruginosa ATCC 27853; format: cell-based, Pseudomonas aeruginosa; conditions: 20% Mueller-Hinton broth in PBS, median of n ≥ 3
Text: as §1, §2, §3, §5

[11] = Resuspension of the peptides in Mueller-Hinton broth; format: physicochemical; conditions: 100% Mueller-Hinton broth
Text: . To solve this issue and determine how it affected antimicrobial activity, bacterial susceptibility tests were repeated with most strains using 20% Mueller-Hinton broth. With some exceptions, these four peptides did indeed increase their activity in this medium, as did the others, in such a manner that the relative differences remained substantially unchanged (Table S1). Therefore, sequence-activity considerations remain valid.

[12] = test system: human red blood cells (hRBCs); format: cell-based
Method: Figure 4 Evaluation of in vitro toxicity of CePrAMPs. (A) Hemolysis assay against human red blood cells (hRBCs), re-suspended in PBS at 4% (v/v) concentrations, measured as the absorbance of released hemoglobin (540 nm) after 1 h of exposure to the peptides. Results are reported as percentages with respect to hRBCs treated for 1 h with 1% Triton X-100 (considered as 100%), and are the average of three independent experiments (n = 3); (B,C) Evaluation via MTT assay of the viability of the indicated eukaryotic cell lines after exposure to the peptides. HaCat (B) or MEC-1 (C) cells were incubated with the different peptides at increasing concentrations for 21 h (B) or 20 h (C), before treating cells with MTT. Results are reported as the percentage of viable cells with respect to the untreated control, and are the average of three independent experiments (n = 3) (* = p < 0.05; ** = p < 0.01).
The lytic potential towards eukaryotic cell membranes was assessed by measuring the release of hemoglobin from human red blood cells (hRBCs) after exposure to the peptides. hRBCs were collected from single donor- human whole blood (Cambridge Bioscience, UK), being isolated by centrifugation, washed three times with PBS, and resuspended to either 8% or 0.8% (v/v) in PBS. […]

[13] = test system: panel of reference pathogenic bacterial and fungal strains; format: cell-based
Text: as §1, §2, §3, §4

[14] = 20% Mueller-Hinton broth in PBS
[15] = broth microdilution (NCCLS), Mueller-Hinton broth, 37 °C, 18 h, visual
[16] = against P. aeruginosa and E. faecium
[17] = against all the Gram-negative pathogen and C. albicans

| Sequence | MIC [1, 14] | MIC [1, 15] | MIC [2] | MIC [3] | MIC [4] | MIC [5] | MIC [6] | inhibition of in vitro transcription/translation (luciferase activity) [7] | MIC [8] | MIC ([9]; BW25113, 18 h) | MIC ([9]; E. coli BW25113, 20% Mueller-Hinton broth in PBS, median of n ≥ 3) | MIC [10] | resuspension in growth medium [11] | hemolytic effect [12] | MIC [13, 16] | MIC ([13]; against P. aeruginosa and E. faecium, listed as Bal) | MIC [13, 17] | MIC ([13]; against P. aeruginosa and E. faecium, listed as Lip) |
| --- | --- | --- | --- | --- | --- | --- | --- | --- | --- | --- | --- | --- | --- | --- | --- | --- | --- | --- |
| RRIRPRPPRLPRPRPRPLPFPRPGPRPIPRPLPFP [Bac7(1-35), reference compound] | 2 µM | 8 µM | 2 µM | >64 µM | 0.5 µM | 1 µM | 64 µM |  |  |  |  |  |  |  |  |  |  |  |
| RRIRFPFPPFPWQWPPAGF [Neo1] |  |  | 32 µM |  | 64 µM | 24 µM | >64 µM | almost no inhibitory activity on protein synthesis | > 64 µM | 24 µM | 16 µM | 64 µM | difficult to resuspend in 100% Mueller-Hinton broth |  |  |  |  |  |
| RRIPFWPIPLRWQWPPPWFPPSFPIPRISRKR [Del1] | 1 µM | 8 µM | 8 µM |  | 8 µM | 4 µM | 4 µM |  |  |  |  |  |  | relatively high hemolytic effect |  |  |  |  |
| RRIPFWPPNLPGPRRPPWFLPDFRIPRIPRKR [Orc1] |  | 2 µM | 4 µM |  | 8 µM | 2 µM | 16 µM |  |  |  |  |  |  |  |  |  |  |  |
| RRIRFRPPRLPRPRPRPWIPPRFPFPRIPGKR [Bal1] | 0.5 µM | 2 µM | 1.5 µM |  | 0.5 µM | 1 µM | 4 µM |  |  |  |  |  |  |  | 2 to 4 µM | ≤ 4 µM | ≤ 2 µM |  |
| RRIRIRPPRLPRPRPRPWFPPRFPIPRIPGKR [Lip1] | 0.5 µM | 1.5 µM | 2 µM |  | 0.5 µM | 0.5 µM | 4 µM |  |  |  |  |  |  |  | 2 to 4 µM |  | ≤ 2 µM | ≤ 4 µM |
